From paper PMC6389425 (Journal of molecular biology, 2019) come the findings set out here.

The target in one test is BvGUS. Nature of the test: isothermal titration calorimetry. Particulars: 25 °C; 20 mM HEPES, 50 mM NaCl, pH 7.4. The test is classed as binding, Butyrivibrio fibrisolvens. In general terms: Isothermal titration calorimetry measures the heat released or taken up as one component is titrated into another.
In test [1] the target is T1, Fp2GUS (Faecalibacterium prausnitzii, UniProt D4K3H3).
T1 sequence (D4K3H3 1-746): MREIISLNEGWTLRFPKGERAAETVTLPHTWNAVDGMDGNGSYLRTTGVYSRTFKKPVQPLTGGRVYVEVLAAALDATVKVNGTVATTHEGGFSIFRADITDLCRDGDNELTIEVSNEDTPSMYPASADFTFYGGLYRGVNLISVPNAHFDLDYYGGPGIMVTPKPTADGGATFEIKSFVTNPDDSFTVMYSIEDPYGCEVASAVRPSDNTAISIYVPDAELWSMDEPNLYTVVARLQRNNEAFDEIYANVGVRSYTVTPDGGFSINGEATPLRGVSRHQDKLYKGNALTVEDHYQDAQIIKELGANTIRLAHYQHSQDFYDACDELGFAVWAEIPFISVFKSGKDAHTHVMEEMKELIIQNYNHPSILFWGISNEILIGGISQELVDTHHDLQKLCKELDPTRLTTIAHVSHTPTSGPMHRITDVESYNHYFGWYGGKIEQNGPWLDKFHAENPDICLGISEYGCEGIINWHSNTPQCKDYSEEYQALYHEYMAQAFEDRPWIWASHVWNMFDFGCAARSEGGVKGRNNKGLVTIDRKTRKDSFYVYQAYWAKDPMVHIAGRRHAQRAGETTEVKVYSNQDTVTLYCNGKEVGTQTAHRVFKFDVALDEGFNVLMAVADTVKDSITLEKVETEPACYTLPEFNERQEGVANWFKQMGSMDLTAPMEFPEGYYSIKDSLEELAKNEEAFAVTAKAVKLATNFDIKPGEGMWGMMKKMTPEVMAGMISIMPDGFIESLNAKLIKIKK
The test can be described thus: isothermal titration calorimetry. The format is binding.

Test [2] has as its target T2, Rh2GUS (Roseburia hominis, UniProt Z9OYF2D7T4, Y182A).
T2 sequence (Z9OYF2D7T4 24-780 Y182A): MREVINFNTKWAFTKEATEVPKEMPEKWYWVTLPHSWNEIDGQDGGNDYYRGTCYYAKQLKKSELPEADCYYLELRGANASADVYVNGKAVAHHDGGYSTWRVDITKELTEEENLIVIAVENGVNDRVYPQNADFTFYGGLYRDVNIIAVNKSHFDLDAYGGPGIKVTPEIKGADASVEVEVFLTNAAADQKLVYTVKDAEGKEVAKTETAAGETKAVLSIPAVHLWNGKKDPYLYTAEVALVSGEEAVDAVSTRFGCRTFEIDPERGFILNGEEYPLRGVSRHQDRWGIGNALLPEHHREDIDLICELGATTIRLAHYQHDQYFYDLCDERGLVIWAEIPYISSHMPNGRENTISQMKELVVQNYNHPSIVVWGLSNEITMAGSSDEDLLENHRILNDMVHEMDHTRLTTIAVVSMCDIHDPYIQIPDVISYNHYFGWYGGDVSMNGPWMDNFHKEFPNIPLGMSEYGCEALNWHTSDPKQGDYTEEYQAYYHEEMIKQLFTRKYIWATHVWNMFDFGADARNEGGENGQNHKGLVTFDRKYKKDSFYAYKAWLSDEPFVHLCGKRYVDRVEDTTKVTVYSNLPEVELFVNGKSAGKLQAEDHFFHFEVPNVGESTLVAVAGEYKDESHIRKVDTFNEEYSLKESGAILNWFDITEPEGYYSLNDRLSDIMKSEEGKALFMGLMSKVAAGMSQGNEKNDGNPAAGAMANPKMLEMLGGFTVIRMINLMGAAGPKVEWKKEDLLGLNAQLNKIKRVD
The test can be described thus: fluorescence of 4-methylumbelliferone release, initial rates. The test is classed as biochemical. The settings on record: pH 6.5 HEPES or pH 5.5 acetate; no FMN added.

For test [3], the target named is T1, Fp2GUS. The description is as above. The test is classed as biochemical. Particulars: pH 6.5 HEPES or pH 5.5 acetate; FMN added (5 μL of 25 μM in 50 μL).
The next test has as its target T3, RiGUS (Roseburia inulinivorans, UniProt Z9MQZ9NYJ7).
T3 sequence (Z9MQZ9NYJ7 1-736): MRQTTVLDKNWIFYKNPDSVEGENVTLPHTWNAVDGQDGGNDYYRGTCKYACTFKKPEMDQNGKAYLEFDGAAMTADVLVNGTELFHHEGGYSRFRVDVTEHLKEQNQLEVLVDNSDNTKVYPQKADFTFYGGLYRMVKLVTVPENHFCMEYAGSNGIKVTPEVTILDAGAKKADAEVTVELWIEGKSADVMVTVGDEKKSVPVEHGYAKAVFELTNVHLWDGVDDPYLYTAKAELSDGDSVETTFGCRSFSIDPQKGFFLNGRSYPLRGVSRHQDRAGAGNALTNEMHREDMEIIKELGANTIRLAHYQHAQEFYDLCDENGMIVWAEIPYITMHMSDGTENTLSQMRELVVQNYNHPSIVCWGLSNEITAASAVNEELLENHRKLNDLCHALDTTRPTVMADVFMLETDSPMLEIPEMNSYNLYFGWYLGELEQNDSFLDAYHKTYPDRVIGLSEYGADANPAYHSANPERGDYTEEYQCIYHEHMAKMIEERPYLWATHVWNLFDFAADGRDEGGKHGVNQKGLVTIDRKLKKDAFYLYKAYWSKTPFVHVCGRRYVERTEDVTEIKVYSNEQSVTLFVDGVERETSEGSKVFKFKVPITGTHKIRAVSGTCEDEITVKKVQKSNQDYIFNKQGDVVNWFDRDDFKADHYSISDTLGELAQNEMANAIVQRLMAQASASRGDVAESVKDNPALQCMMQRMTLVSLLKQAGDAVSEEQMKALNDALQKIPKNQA
The test is described as above. The test is classed as biochemical. The settings on record: pH 6.5 HEPES or pH 5.5 acetate; FMN added (5 μL of 25 μM in 50 μL).

In a further test the target is T4, Rg3GUS (Mediterraneibacter gnavus, UniProt Z9EEQ2OTY4).
T4 sequence (Z9EEQ2OTY4 24-777): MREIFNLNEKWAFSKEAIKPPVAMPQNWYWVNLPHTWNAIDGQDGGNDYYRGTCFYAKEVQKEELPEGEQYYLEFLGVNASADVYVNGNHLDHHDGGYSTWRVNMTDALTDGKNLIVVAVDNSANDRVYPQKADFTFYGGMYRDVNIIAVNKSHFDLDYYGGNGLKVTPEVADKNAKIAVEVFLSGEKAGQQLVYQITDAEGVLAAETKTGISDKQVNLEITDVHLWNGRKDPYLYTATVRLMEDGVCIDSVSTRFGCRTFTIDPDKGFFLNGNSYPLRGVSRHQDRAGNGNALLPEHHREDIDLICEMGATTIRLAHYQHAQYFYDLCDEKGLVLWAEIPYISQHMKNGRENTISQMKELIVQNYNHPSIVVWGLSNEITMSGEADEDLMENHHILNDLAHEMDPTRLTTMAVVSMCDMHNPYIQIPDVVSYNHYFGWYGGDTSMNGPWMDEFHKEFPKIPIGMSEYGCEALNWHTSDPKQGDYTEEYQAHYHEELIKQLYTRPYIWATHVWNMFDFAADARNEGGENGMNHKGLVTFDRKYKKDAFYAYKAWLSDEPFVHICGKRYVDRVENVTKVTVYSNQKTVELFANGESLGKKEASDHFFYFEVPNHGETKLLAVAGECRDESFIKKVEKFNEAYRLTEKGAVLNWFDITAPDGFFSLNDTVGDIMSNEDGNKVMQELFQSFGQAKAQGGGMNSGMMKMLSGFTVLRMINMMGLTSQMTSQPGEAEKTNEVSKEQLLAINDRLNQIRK
Described as above. The test is classed as biochemical. The settings on record: pH 6.5 HEPES or pH 5.5 acetate; FMN added (5 μL of 25 μM in 50 μL).

Test [4] deals with T5, Rh2GUS (Roseburia hominis, UniProt Z9OYF2D7T4).
T5 sequence (Z9OYF2D7T4 24-780): T2 sequence (Z9OYF2D7T4 24-780 Y182A) with A159Y
The test is described as above. The test is classed as biochemical. Particulars: pH 6.5 HEPES or pH 5.5 acetate; FMN added (5 μL of 25 μM in 50 μL).

Changes are numbered by the printed parent chain.

Take `Cc1cc2nc3c(=O)[nH]c(=O)nc-3n(C[C@H](O)[C@H](O)[C@H](O)COP(=O)(O)O)c2cc1C` [FMN]: the Kd (in general, the concentration at which binding is half-saturated) at BvGUS came to 1270 nM; on Fp2GUS [1], 1050 ± 60 nM.
Regarding `Cc1cc(=O)oc2cc(O[C@@H]3O[C@H](C(=O)O)[C@@H](O)[C@H](O)[C@H]3O)ccc12` [4-MUG], the KM entry is “FMN-binding mutants of Rh2GUS, Rg3GUS, and BvGUS all display significantly higher KM values than WT” on Rh2GUS [2]; “Each GUS was able to hydrolyze the fluorescent reporter substrate 4-methylumbelliferyl glucuronide (4-MUG)” at Fp2GUS [3]; “Each GUS was able to hydrolyze the fluorescent reporter substrate 4-methylumbelliferyl glucuronide (4-MUG)” on RiGUS; “Each GUS was able to hydrolyze the fluorescent reporter substrate 4-methylumbelliferyl glucuronide (4-MUG)” on Rg3GUS; “Each GUS was able to hydrolyze the fluorescent reporter substrate 4-methylumbelliferyl glucuronide (4-MUG)” on Rh2GUS [4].
